# Experimental data from PubChem BioAssay AID602166 (The Scripps Research Institute Molecular Screening Center, 2012).
# Calls of active or inactive are those of the source. No rule for the calls is given here.
# Target: Nuclear receptor coactivator 3 (Homo sapiens) (UniProt Q9Y6Q9)
# Assay: SRC3 coactivator transcriptional activity inhibitors, dose response, cell-based, luminescence (AID 602166);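 also: potency for reduction of SRC3 reporter signal so compounds are inhibitors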
# Settings: SRC3 luciferase reporter cell assay
# Chain of Nuclear receptor coactivator 3 (Homo sapiens) (Q9Y6Q9 whole entry, looked up): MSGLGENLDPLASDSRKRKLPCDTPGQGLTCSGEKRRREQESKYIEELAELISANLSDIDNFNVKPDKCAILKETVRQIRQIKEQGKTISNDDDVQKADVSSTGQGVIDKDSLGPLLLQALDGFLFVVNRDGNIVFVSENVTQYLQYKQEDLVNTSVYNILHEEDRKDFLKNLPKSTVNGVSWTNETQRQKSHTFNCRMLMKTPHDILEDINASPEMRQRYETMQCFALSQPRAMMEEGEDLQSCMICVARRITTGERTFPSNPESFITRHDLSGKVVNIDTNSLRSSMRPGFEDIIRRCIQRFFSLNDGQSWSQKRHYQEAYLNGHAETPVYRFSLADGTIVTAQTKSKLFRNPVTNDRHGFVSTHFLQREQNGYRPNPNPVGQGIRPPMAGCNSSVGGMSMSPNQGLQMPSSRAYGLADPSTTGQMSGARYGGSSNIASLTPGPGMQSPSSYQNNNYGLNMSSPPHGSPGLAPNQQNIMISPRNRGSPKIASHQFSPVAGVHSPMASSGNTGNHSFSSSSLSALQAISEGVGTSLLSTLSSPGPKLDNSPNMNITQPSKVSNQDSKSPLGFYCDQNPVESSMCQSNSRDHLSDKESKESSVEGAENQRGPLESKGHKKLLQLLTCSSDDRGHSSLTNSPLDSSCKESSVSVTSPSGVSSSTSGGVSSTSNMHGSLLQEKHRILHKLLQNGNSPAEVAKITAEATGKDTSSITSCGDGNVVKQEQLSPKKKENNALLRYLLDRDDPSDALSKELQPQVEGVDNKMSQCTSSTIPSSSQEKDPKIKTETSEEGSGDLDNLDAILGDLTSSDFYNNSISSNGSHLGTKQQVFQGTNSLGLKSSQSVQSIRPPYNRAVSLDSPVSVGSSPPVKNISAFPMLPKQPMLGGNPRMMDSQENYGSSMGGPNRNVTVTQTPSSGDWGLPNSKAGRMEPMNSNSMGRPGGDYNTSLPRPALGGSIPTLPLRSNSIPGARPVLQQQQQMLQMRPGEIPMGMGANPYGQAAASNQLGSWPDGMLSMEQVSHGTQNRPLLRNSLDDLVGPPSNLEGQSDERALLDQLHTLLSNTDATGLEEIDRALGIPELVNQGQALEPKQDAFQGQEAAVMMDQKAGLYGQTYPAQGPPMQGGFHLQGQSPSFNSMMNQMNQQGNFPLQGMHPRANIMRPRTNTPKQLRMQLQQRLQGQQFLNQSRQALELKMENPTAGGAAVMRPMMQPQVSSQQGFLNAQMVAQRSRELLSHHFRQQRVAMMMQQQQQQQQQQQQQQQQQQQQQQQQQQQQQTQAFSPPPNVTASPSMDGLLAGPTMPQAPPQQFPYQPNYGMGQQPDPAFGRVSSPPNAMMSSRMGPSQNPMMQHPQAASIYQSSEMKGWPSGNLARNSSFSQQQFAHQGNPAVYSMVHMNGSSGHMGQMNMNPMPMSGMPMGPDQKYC
row,SMILES,IC50
1,CCc1nc(N)nc(N)c1-c1ccc(Cl)c([N+](=O)[O-])c1,4.28 µM
2,COc1ccc(OC)c(N/C=C/C(=O)c2ccccc2)c1,inactive
3,CC(=O)c1cccc(-c2csc3ncnc(Sc4nnnn4C)c23)c1,inactive
4,c1csc(Cc2nn3c(-c4ccncc4)nnc3s2)c1,8.11 µM
5,O=C(c1ccncc1)N(Cc1cc2ccccc2[nH]c1=O)C1CCCCC1,5.82 µM
6,COC(CN(C(=O)CCl)C(C(=O)NC1CCCCC1)c1ccccc1C)OC (centres undefined),6.18 µM
7,CC(C)(C)c1cc(C(=O)N/N=C/c2ccc(O)cc2)n(-c2ccccc2)n1,> 35.9 µM (inactive)
8,Cc1ccc(N=c2c([N+](=O)[O-])nn(-c3ccc4c(c3)OCCO4)n2O)cc1F,8.48 µM
9,CN(C)c1ccc(C(=S)Nc2ccccc2)cc1,> 35.9 µM (inactive)
10,Cc1ccc(-n2c(Cl)c(Cl)nc(Cl)c2=O)cc1,inactive
11,Cn1cnc([N+](=O)[O-])c1Sc1nc(N)nc2c1ncn2C1OC(CO)C(O)C1O (centres undefined),6.37 µM
12,O=C(CCl)NC(Cc1ccccc1)c1ccccc1 (centres undefined),5.58 µM
13,CCn1ccnc1CN(C)Cc1cn[nH]c1-c1ccc(OC)c(F)c1,4.91 µM
14,O=C(N/N=C/c1cc(Br)c(Br)s1)c1ccncc1,8.67 µM
15,Cc1c(/C(O)=C2/C(=O)C(=O)N(Cc3cccnc3)C2c2ccccn2)cnn1-c1ccccc1 (centres undefined),> 35.9 µM (inactive)
16,Nc1ccc(Oc2ccccc2-c2ccccc2)cc1,inactive
17,C(=N\Nc1nc2ccccc2[nH]1)/c1cccc2cccnc12,9.18 µM
18,Cc1ccc(C(=O)Nc2cnc3ccccc3c2)cc1,inactive
19,O=[N+]([O-])c1ccc(N(CCO)CCO)c2c1no[n+]2[O-],7.24 µM
20,O=C(Nc1cccnc1)c1ccc(C(=O)Nc2cccnc2)cc1,> 35.9 µM (inactive)
21,Cc1nc2c(-c3ccc(Cl)cc3)cnn2c(N)c1-c1ccc(F)cc1,> 35.9 µM (inactive)
22,Cc1cc(/C=C2\Cc3ccccc3C2=O)c(C)n1-c1ccccc1,> 35.9 µM (inactive)

row,SMILES,IC50
1,COc1ccc(CCNC(=O)c2nnn(-c3ccc4c(c3)OCCO4)c2N)cc1OC,> 35.9 µM (inactive)
2,Fc1ccccc1-c1csc(=Nc2cccnc2)n1CCCn1ccnc1,5.27 µM
3,c1ccc(-c2nnc(-c3ccccn3)nc2NC2CCCCC2)cc1,3.94 µM
4,O=C(Nc1cccc(C(F)(F)F)c1)Nc1nnc([C@@H]2C[C@H](O)[C@@H](CO)O2)s1,5.86 µM
5,O=C(N/N=C\c1ccc([N+](=O)[O-])s1)c1cncc(Br)c1,5.46 µM
6,CC[C@@]1(O)C(=O)OCc2c1cc1n(c2=O)Cc2cc3c(NC(=O)CN)cccc3nc2-1,1.75 µM
7,CN(C)/C=C/C(=O)c1ccc2noc(-c3ccccc3)c2c1,3.72 µM
8,O=[N+]([O-])c1cccc2c1ccc1ncccc12,8.07 µM
9,S=C(Nc1ccccc1)Nc1ccc(OCc2ccc(Cl)cc2Cl)cc1,4.36 µM
10,COc1ccc(-c2nsc3c(N4CCCCC4)ncnc23)cc1,> 35.9 µM (inactive)
11,Cc1cccc(NC(=O)c2cc(Cl)ccc2[N+](=O)[O-])c1,5.61 µM
12,COc1ccc2[nH]c(=O)c(CN(CCN3CCCC3)C(=O)Nc3ccccc3Cl)cc2c1,inactive
13,CCOc1cc(/C=C2\CCC/C(=C\c3cc(Cl)c(O)c(OCC)c3)C2=O)cc(Cl)c1O,> 35.8 µM (inactive)
14,CC(C)(C)n1ncc2c(=O)n(CC(=O)OCc3ccccc3)cnc21,> 35.9 µM (inactive)
15,CC1CCN(C2=NC(=O)/C(=C/c3ccccc3F)S2)CC1,> 35.9 µM (inactive)
16,CC(=O)OCCN1c2ccccc2Sc2cnccc21,5.67 µM
17,Nc1nccc(-c2ccc(-n3cnc4ccccc43)cc2)n1,1.91 µM
18,Cc1ccc2nc(-c3ccncc3)c(NC3CCCC3)n2c1,inactive
19,CNC(=O)c1cccn(Cc2ccc(C(F)(F)F)cc2)c1=O,> 35.8 µM (inactive)
20,CCN(c1cccc(C)c1)c1ncnc2nc[nH]c12,inactive
21,COc1ccc(OC)c(Cc2cnc3nc(N)nc(N)c3c2C)c1,7.45 µM
22,C(=N\Nc1ccc2ccccc2n1)/c1ccc2c(c1)OCCO2,inactive

row,SMILES,IC50
1,CCc1ccc(-c2nc(CSCC(=O)NCc3ccco3)c(C)o2)cc1,> 35.9 µM (inactive)
2,COc1ccccc1C(=O)N(CCC1CCCN1C)c1nc2ccccc2s1 (centres undefined),> 35.9 µM (inactive)
3,CCc1ccc(/C=C2\SC(=S)N(CCCC(=O)NCCCN3CCOCC3)C2=O)cc1,inactive
4,C/C(=N\NC(=S)Nc1cc(S(=O)(=O)N2CCOCC2)ccc1Cl)c1ccccc1F,> 35.9 µM (inactive)
5,CCCC(=O)NC(c1ccc(Cl)cc1)c1ccc2cccnc2c1O (centres undefined),4.7 µM
6,Nc1nc2c(nnn2C2CC(O)C(CO)O2)c(=O)[nH]1 (centres undefined),7.87 µM
7,COc1ccc(/C=C2\CN(Cc3ccccc3)C/C(=C\c3ccc(OC)c(O)c3)C2=O)cc1O,> 35.9 µM (inactive)
8,CCCC(=O)NC(c1ccc(Cl)cc1Cl)c1ccc2cccnc2c1O (centres undefined),inactive
9,COc1cc2oc(=O)cc(-c3ccc(-c4ccc(CO)cc4)cc3)c2c(OC)c1OC,4.57 µM
10,NC(=S)NN=Cc1nccc2c(N)cccc12,2.42 µM
11,CCOC(=O)C(C(C)=O)c1c(Br)c(O)c(O)c2c(C(=O)c3ccc(C)cc3)coc12 (centres undefined),4.11 µM
12,O=c1[nH]c2ccccc2n1C1CCN(C(c2cc3ccccc3o2)c2nnnn2Cc2ccccc2)CC1 (centres undefined),inactive
13,O=C(NC1CCCCC1)C(c1cccnc1)N(C(=O)CCl)c1cccc(Cl)c1 (centres undefined),3.1 µM
14,O=S(=O)(c1ccc(F)cc1)c1snnc1-c1ccccc1,inactive
15,CN(C)c1ccc(CNC(=O)CCNS(=O)(=O)c2cc(Br)cnc2N)cc1,4.34 µM
16,O=C(NCCCn1ccnc1)c1ccc(N2CCCCCC2)c([N+](=O)[O-])c1,inactive
17,O=C(CCl)N(c1ccccc1)C1CCS(=O)(=O)C1 (centres undefined),6.92 µM
18,COc1cccc(/C=N/Nc2cc(-n3nc(C)cc3-c3ccccc3)ncn2)c1O,4.12 µM
19,CCOC(=O)CC(=O)CSc1nccc(-c2cccnc2)n1,inactive
20,O=C(NCCc1ccccc1)c1ccc2c(c1)OCCO2,9.59 µM
21,C=CCOc1ccc(/C=C2\SC(=S)N(CCC(=O)O)C2=O)cc1,inactive
22,CN(C)S(=O)(=O)c1ccc(N2CCN(S(=O)(=O)c3ccc(F)cc3)CC2)c(Cl)c1,7.88 µM

row,SMILES,IC50
1,O=C(CCCc1nc(-c2ccccc2Cl)no1)NC1CCCC1,8.14 µM
2,O=[N+]([O-])c1nn(-c2ccc3c(c2)OCCO3)n(O)c1=Nc1ccccc1,1.08 µM
3,CN[C@H]1CCc2cc(OC)c(OC)c(OC)c2-c2ccc(OC)c(=O)cc21,> 35.9 µM (inactive)
4,CCOc1ccc(/C=C2\SC(=S)N(CCCC(=O)NCCCN3CCOCC3)C2=O)cc1,inactive
5,COC(=O)c1cc(S(=O)(=O)NCCc2ccc(Cl)cc2)c[nH]1,5.72 µM
6,Cc1sc2ncnc(N3CCC(C(=O)Nc4ccccc4C(C)(C)C)CC3)c2c1C,5.75 µM
7,COc1ccc(Nc2ccncc2[N+](=O)[O-])cc1,5.32 µM
8,CCC(=O)c1ccc(O)c(CC=C(C)C)c1,8.77 µM
9,COc1ccc(/C=C2\CC/C(=C\c3ccc(OC)c(OC)c3)C2=O)cc1OC,6.33 µM
10,CN1C(=O)C2(C(C#N)=C(N)N(c3cc(Cl)cc(Cl)c3)C3=C2C(=O)CCC3)c2ccccc21 (centres undefined),2.63 µM
11,CCn1nc(/C=C/c2ccccc2)nc2c(=O)n(C)c(=O)nc1-2,> 35.9 µM (inactive)
12,CN(Cc1cnc2nc(N)nc(N)c2n1)c1ccc(C(=O)N[C@@H](CCC(=O)O)C(=O)O)cc1,> 35.9 µM (inactive)
13,Oc1ccc(C=NNc2ccccn2)c(O)c1,inactive
14,Cc1cc(C(=O)COC(=O)C2=COCCO2)c(C)n1-c1ccccc1,> 35.9 µM (inactive)
15,COc1cccc(/C=N/Nc2ccc([N+](=O)[O-])cn2)c1O,inactive
16,Cc1ccc2occ(/C=N/NC(=O)c3ccccc3Br)c(=O)c2c1,inactive
17,O=C(CCl)N(c1ccccc1)C1CCCCC1,8.7 µM
18,C(=Cc1cnc2ccccc2n1)c1ccc2c(c1)OCO2,inactive
19,CS(=O)c1nc(-c2ccc(Br)cc2)cc(-c2ccccc2)c1C#N (centres undefined),inactive
20,c1ccc2c(c1)Nc1ccncc1S2,inactive
21,NC(=S)N/N=C1\CCOc2ccc(Cl)cc21,6.9 µM
22,CC(C)(C)c1ccc(Oc2ccc(N)cn2)cc1,inactive

row,SMILES,IC50
1,COc1ccc(-c2cn[nH]c2-c2ccc(OC)cc2O)cc1,2.89 µM
2,COC(=O)c1cccc2c1-c1ccccc1/C2=N/O,2.35 µM
3,O=C(CCl)Nc1cccc(-c2cnc3ccccc3n2)c1,inactive
4,COc1cc2[nH]c3c(Cl)ncnc3c2cc1OC,> 35.9 µM (inactive)
5,CCCS(=O)(=O)Nc1ccc(Nc2c3ccccc3nc3ccccc23)c(OC)c1,0.605 µM
6,O=C(CC(Nc1ccc(Cl)cc1Cl)C(=O)O)c1ccccc1 (centres undefined),> 35.9 µM (inactive)
7,COc1cc([C@@H]2c3cc4c(cc3[C@@H](O[C@@H]3O[C@@H]5CO[C@@H](C)O[C@H]5[C@H](O)[C@H]3O)[C@H]3COC(=O)[C@H]23)OCO4)cc(OC)c1O,2.48 µM
8,COc1cccc(-c2nnc3sc(C4CCCCC4)nn23)c1,1.73 µM
9,CCCC(=O)NC(c1ccc2c(c1)OCO2)c1cc(Cl)c2cccnc2c1O (centres undefined),7.71 µM
10,COc1cccc2c1C(=N)c1c(O)c3c(c(O)c1C2=O)CC(O)(C(C)=O)CC3OC1CC(N)C(O)C(C)O1 (centres undefined),> 35.9 µM (inactive)
11,Cc1cccc2sc(NNC(=O)c3ccc(S(=O)(=O)N4CC(C)CC(C)C4)cc3)nc12 (centres undefined),5.91 µM
12,COc1cccc(CNc2ncnc3ccc(-c4c(C)noc4C)cc23)c1,inactive
13,O=C(CNc1cccc([N+](=O)[O-])c1)N/N=C/c1ccc([N+](=O)[O-])o1,inactive
14,CC(=O)c1ccc(Nc2c3c(nc4ccccc24)CCCC3)cc1,inactive
15,COc1cc2c(c(OC)c1OC)-c1ccc(SC)c(=O)cc1C(NC=O)CC2 (centres undefined),inactive
16,COc1cc(/C=C(/C(=O)c2cccs2)c2nc3ccccc3[nH]2)cc(OC)c1O,> 35.9 µM (inactive)
17,Cc1cccc(CN2CCN(C(=O)CCl)CC2)c1,> 35.9 µM (inactive)
18,OCCN1CCN(C(=S)c2ccc(-c3ccccc3)cc2)CC1,4.57 µM
19,NC(=O)c1sc2nc3c(c(-c4ccco4)c2c1N)CCC3,1.12 µM
20,COc1cc(C(=O)N/N=C(\c2ccccc2)c2ccccn2)cc(OC)c1OC,inactive
21,C(=NNc1ccc2ccccc2n1)c1ccccn1,inactive
